Experimental data reported in patent US11358957B2, “Microbiocidal oxadiazole derivatives” (SYNGENTA PARTICIPATIONS AG, priority 2017, dated 2022).

Experiments:
[1] = tested on: Puccinia recondita f. Sp. Tritici; assay: Fungicidal activity against Puccinia recondita f. sp. tritici / wheat / leaf disc preventative (brown rust); assay type: in vivo; conditions: foliar, 200 ppm in the applied formulation, wheat leaf segments cv. Kanzler, preventative (inoculated 1 day after application), compared to untreated, read-out: disease control
Summary of the method: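 Segments of wheat cv. Kanzler on water agar were sprayed with compound and inoculated with spores 1 day later. They were kept at 19 °C, 75% rh and 12 h light/12 h dark. Percent disease control versus untreated was scored 7–9 days after application; compounds were tested at 200 ppm.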

[2] = tested on: Puccinia recondita f. Sp. Tritici; assay: Fungicidal activity against Puccinia recondita f. sp. tritici / wheat / leaf disc curative (brown rust); assay type: in vivo; conditions: foliar, 24 h, 200 ppm in the applied formulation, wheat leaf segments cv. Kanzler, curative (applied 1 day after inoculation), compared to untreated, read-out: disease control
Summary of the method: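 Wheat leaf segments (cv. Kanzler) on agar were inoculated with brown rust spores, kept dark at 19 °C and 75% RH, then sprayed 1 day later with compound (DMSO stock diluted in 0.025% Tween20). Under 12 h light/12 h dark at 19 °C, percent disease control versus untreated was scored 6–8 days after application; 200 ppm applied.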

Phakopsora pachyrhizi = assay: Fungicidal activity against Phakopsora pachyrhizi / soybean / leaf disc preventative (Asian soybean rust); assay type: in vivo; conditions: foliar, 200 ppm in the applied formulation, soybean leaf disks, compared to untreated, read-out: disease control
Experimental: Leaf disks or leaf segments of various plant species are cut from plants grown in a greenhouse. The cut leaf disks or segments are placed in multiwell plates (24-well format) onto water agar. The leaf disks are sprayed with a test solution before (preventative) or after (curative) inoculation. Compounds to be tested are prepared as DMSO solutions (max. 10 mg/mL) which are diluted to the appropriate concentration with 0.025% Tween20 just before spraying. The inoculated leaf disks or segments are incubated under defined conditions (temperature, relative humidity, light, etc.) according to the respective test system. A single evaluation of disease level is carried out 3 to 14 days after inoculation, depending on the pathosystem. Percent disease control relative to the untreated check leaf disks or segments is then calculated. Soybean leaf disks are placed on water agar in multiwell plates (24-well format) and sprayed with the formulated test compound diluted in water. One day after application leaf discs are inoculated by spraying a spore suspension on the lower leaf surface. After an incubation period in a climate cabinet of 24-36 hours in darkness at 20° C. and 75% rh leaf disc are kept at 20° C. with 12 h light/day and 75% rh. The activity of a compound is assessed as percent disease control compared to untreated when an appropriate level of disease damage appears in untreated check leaf disks (12 to 14 days after application). The following compounds at 200 ppm in the applied formulation give at least 80% disease control in this test when compared to untreated control leaf disks under the same conditions, which show extensive disease development.

[3] = tested on: Glomerella lagenarium (Colletotrichum lagenarium); assay: Fungicidal activity against Glomerella lagenarium (Colletotrichum lagenarium) liquid culture / cucumber / preventative (anthracnose); assay type: cell-based; conditions: Colletotrichum orbiculare; 20 ppm in the applied formulation; liquid culture (PDB), inhibition of growth measured photometrically 3 to 4 days after application; compared to untreated; read-out: disease control
Summary of the method: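 Conidia from cryogenic storage mixed into potato dextrose broth and added to compound in DMSO in microtiter plates. Incubated at 24° C.; growth inhibition read photometrically 3 to 4 days after application. Disease control expressed relative to untreated control, with compound at 20 ppm in the applied formulation.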

| Structure (SMILES) | pest or weed control at 200 ppm [1] [%] | pest or weed control at 200 ppm [2] [%] | pest or weed control at 200 ppm (Phakopsora pachyrhizi) [%] | inhibition of growth at 20 ppm [3] [%] | melting point [°C] |
| --- | --- | --- | --- | --- | --- |
| CN(C)C(=O)c1ccn(Cc2ccc(-c3noc(C(F)(F)F)n3)s2)n1 [Compound 1.57, N,N-dimethyl-1-[[5-[5-(trifluoromethyl)-1,2,4-oxadiazol-3-yl]-2-thienyl]methyl]pyrazole-3-carboxamide] | ≥ 80 | ≥ 80 | ≥ 80 | ≥ 80 | 90 to 96 |
| CNC(=O)c1cnn(Cc2ccc(-c3noc(C(F)(F)F)n3)s2)c1 [Compound 1.38, N-methyl-1-[[5-[5-(trifluoromethyl)-1,2,4-oxadiazol-3-yl]-2-thienyl]methyl]pyrazole-4-carboxamide] | ≥ 80 | ≥ 80 | ≥ 80 | ≥ 80 | 150.8 to 155.7 |
| O=C(O)c1ncn(Cc2ccc(-c3noc(C(F)(F)F)n3)s2)n1 [Compound 1.63, 1-[[5-[5-(trifluoromethyl)-1,2,4-oxadiazol-3-yl]-2-thienyl]methyl]-1,2,4-triazole-3-carboxylic acid] | ≥ 80 | ≥ 80 | – | – | 210 to 220 |
| CC(c1ccc(-c2noc(C(F)(F)F)n2)s1)n1cc(C(=O)O)cn1 (centres unmarked) [Compound 1.37, 1-[1-[5-[5-(trifluoromethyl)-1,2,4-oxadiazol-3-yl]-2-thienyl]ethyl]pyrazole-4-carboxylic acid] | ≥ 80 | ≥ 80 | – | ≥ 80 | 133 to 143 |
| O=C(O)c1ccnn1Cc1ccc(-c2noc(C(F)(F)F)n2)s1 [Compound 1.64, 2-[[5-[5-(trifluoromethyl)-1,2,4-oxadiazol-3-yl]-2-thienyl]methyl]pyrazole-3-carboxylic acid] | ≥ 80 | ≥ 80 | – | ≥ 80 | 145 to 165 |
| CONC(=O)c1ccn(Cc2ccc(-c3noc(C(F)(F)F)n3)s2)n1 [Compound 1.56, N-methoxy-1-[[5-[5-(trifluoromethyl)-1,2,4-oxadiazol-3-yl]-2-thienyl]methyl]pyrazole-3-carboxamide] | ≥ 80 | ≥ 80 | ≥ 80 | ≥ 80 | 134 to 141 |
| CCOC(=O)c1cnn(Cc2cc(-c3noc(C(F)(F)F)n3)cs2)c1 [Compound 1.26, ethyl 1-[[4-[5-(trifluoromethyl)-1,2,4-oxadiazol-3-yl]-2-thienyl]methyl]pyrazole-4-carboxylate] | ≥ 80 | – | – | ≥ 80 | 119 to 123 |
| CONC(=O)c1ccnn1Cc1ccc(-c2noc(C(F)(F)F)n2)s1 [Compound 1.60, N-methoxy-2-[[5-[5-(trifluoromethyl)-1,2,4-oxadiazol-3-yl]-2-thienyl]methyl]pyrazole-3-carboxamide] | ≥ 80 | ≥ 80 | ≥ 80 | ≥ 80 | 105 to 115 |
| CNC(=O)c1ncn(Cc2ccc(-c3noc(C(F)(F)F)n3)s2)n1 [Compound 1.49, N-methyl-1-[[5-[5-(trifluoromethyl)-1,2,4-oxadiazol-3-yl]-2-thienyl]methyl]-1,2,4-triazole-3-carboxamide] | ≥ 80 | ≥ 80 | ≥ 80 | ≥ 80 | 198 to 218 |
| CCCOC(=O)c1ncn(Cc2ccc(-c3noc(C(F)(F)F)n3)s2)n1 [Compound 1.43, propyl 1-[[5-[5-(trifluoromethyl)-1,2,4-oxadiazol-3-yl]-2-thienyl]methyl]-1,2,4-triazole-3-carboxylate] | ≥ 80 | ≥ 80 | ≥ 80 | ≥ 80 | 140 to 160 |
| COCCNC(=O)c1cnn(Cc2ccc(-c3noc(C(F)(F)F)n3)s2)c1 [Compound 1.39, N-(2-methoxyethyl)-1-[[5-[5-(trifluoromethyl)-1,2,4-oxadiazol-3-yl]-2-thienyl]methyl]pyrazole-4-carboxamide] | ≥ 80 | ≥ 80 | ≥ 80 | ≥ 80 | 135.3 to 137.9 |
| CN(C)c1ncn(Cc2ccc(-c3noc(C(F)(F)F)n3)s2)n1 [Compound 1.4, N,N-dimethyl-1-[[5-[5-(trifluoromethyl)-1,2,4-oxadiazol-3-yl]-2-thienyl]methyl]-1,2,4-triazol-3-amine] | ≥ 80 | ≥ 80 | ≥ 80 | ≥ 80 | 113 to 116 |
| CCOC(=O)c1ncn(Cc2ccc(-c3noc(C(F)(F)F)n3)s2)n1 [Compound 1.40, ethyl 1-[[5-[5-(trifluoromethyl)-1,2,4-oxadiazol-3-yl]-2-thienyl]methyl]-1,2,4-triazole-3-carboxylate] | ≥ 80 | ≥ 80 | ≥ 80 | ≥ 80 | 136 to 140 |
| CC(c1ccc(-c2noc(C(F)(F)F)n2)s1)n1cc(C(=O)N2CCC2)cn1 (centres unmarked) [Compound 1.35, azetidin-1-yl-[1-[1-[5-[5-(trifluoromethyl)-1,2,4-oxadiazol-3-yl]-2-thienyl]ethyl]pyrazol-4-yl]methanone] | ≥ 80 | ≥ 80 | ≥ 80 | ≥ 80 | 76 to 78 |
| CONC(=O)c1ncn(Cc2ccc(-c3noc(C(F)(F)F)n3)s2)n1 [Compound 1.59, N-methoxy-1-[[5-[5-(trifluoromethyl)-1,2,4-oxadiazol-3-yl]-2-thienyl]methyl]-1,2,4-triazole-3-carboxamide] | ≥ 80 | ≥ 80 | ≥ 80 | ≥ 80 | 168 to 178 |
| COC(=O)c1ccnn1Cc1ccc(-c2noc(C(F)(F)F)n2)s1 [Compound 1.54, methyl 2-[[5-[5-(trifluoromethyl)-1,2,4-oxadiazol-3-yl]-2-thienyl]methyl]pyrazole-3-carboxylate] | ≥ 80 | ≥ 80 | ≥ 80 | ≥ 80 | – |
| O=C(O)c1cnn(Cc2ccc(-c3noc(C(F)(F)F)n3)s2)c1 [Compound 1.36, 1-[[5-[5-(trifluoromethyl)-1,2,4-oxadiazol-3-yl]-2-thienyl]methyl]pyrazole-4-carboxylic acid] | ≥ 80 | ≥ 80 | – | ≥ 80 | 182 to 185 |
| Cc1cccc(=O)n1C(C)c1ccc(-c2noc(C(F)(F)F)n2)s1 (centres unmarked) [Compound 1.33, 6-methyl-1-[1-[5-[5-(trifluoromethyl)-1,2,4-oxadiazol-3-yl]-2-thienyl]ethyl]pyridin-2-one] | ≥ 80 | ≥ 80 | ≥ 80 | ≥ 80 | – |
| CN(C)C(=O)c1ncnn1Cc1ccc(-c2noc(C(F)(F)F)n2)s1 [Compound 1.50, N,N-dimethyl-2-[[5-[5-(trifluoromethyl)-1,2,4-oxadiazol-3-yl]-2-thienyl]methyl]-1,2,4-triazole-3-carboxamide] | ≥ 80 | ≥ 80 | ≥ 80 | ≥ 80 | – |
| CCCOC(=O)c1ncnn1Cc1ccc(-c2noc(C(F)(F)F)n2)s1 [Compound 1.44, propyl 2-[[5-[5-(trifluoromethyl)-1,2,4-oxadiazol-3-yl]-2-thienyl]methyl]-1,2,4-triazole-3-carboxylate] | ≥ 80 | ≥ 80 | ≥ 80 | ≥ 80 | – |
